Data as given in PubChem BioAssay AID248 (DTP/NCI, 2004).
Toxic doses and inconclusive results are not listed. No stated cut-off is given here; in the data, active means T/C of 150% or more; inactive means T/C below 125%.

System: L1210 leukemia ip in BDF1 mice, survival T/C
Experiment: NCI In Vivo Anticancer Drug Screen. Data for tumor model L1210 Leukemia (intraperitoneal) in B6D2F1 (BDF1) mice
Conditions: endpoint: mean survival time, higher = longer survival
Summary of the method: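 Survival endpoint. Drug-treated group vs vehicle group, expressed as T divided by C. Tumor passaged by transplantation.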

[1] = dose: 100.0 mg/kg/injection, schedule: Q01DX001 (ip), vehicle: carboxymethylcellulose (CMC)
[2] = dose: 50.0 mg/kg/injection, schedule: Q01DX009 (ip), vehicle: Klucel (hydroxypropylcellulose) (HPC)
[3] = dose: 100.0 mg/kg/injection, schedule: Q01DX009 (ip), vehicle: Klucel (hydroxypropylcellulose) (HPC)
[4] = dose: 100.0 mg/kg/injection, schedule: Q04DX003 (ip), vehicle: Klucel (hydroxypropylcellulose) (HPC)
[5] = dose: 200.0 mg/kg/injection, schedule: Q01DX009 (ip), vehicle: Klucel (hydroxypropylcellulose) (HPC)
[6] = dose: 200.0 mg/kg/injection, schedule: Q04DX003 (ip), vehicle: Klucel (hydroxypropylcellulose) (HPC)
[7] = dose: 400.0 mg/kg/injection, schedule: Q01DX009 (ip), vehicle: Klucel (hydroxypropylcellulose) (HPC)
[8] = dose: 50.0 mg/kg/injection, schedule: Q01DX009 (ip), vehicle: saline with Tween-80
[9] = dose: 100.0 mg/kg/injection, schedule: Q01DX009 (ip), vehicle: saline with Tween-80
[10] = dose: 200.0 mg/kg/injection, schedule: Q01DX009 (ip), vehicle: saline with Tween-80
[11] = dose: 100.0 mg/kg/injection, schedule: Q04DX002 (ip), vehicle: Klucel (hydroxypropylcellulose) (HPC)
[12] = dose: 200.0 mg/kg/injection, schedule: Q04DX002 (ip), vehicle: Klucel (hydroxypropylcellulose) (HPC)
[13] = dose: 400.0 mg/kg/injection, schedule: Q04DX002 (ip), vehicle: Klucel (hydroxypropylcellulose) (HPC)
[14] = dose: 100.0 mg/kg/injection, schedule: Q04DX003 (ip), vehicle: saline with Tween-80
[15] = dose: 200.0 mg/kg/injection, schedule: Q04DX003 (ip), vehicle: saline with Tween-80
[16] = dose: 400.0 mg/kg/injection, schedule: Q04DX003 (ip), vehicle: saline with Tween-80
[17] = dose: 25.0 mg/kg/injection, schedule: Q01DX009 (ip), vehicle: saline with Tween-80
[18] = dose: 100.0 mg/kg/injection, schedule: Q01DX009 (ip), vehicle: saline
[19] = dose: 100.0 mg/kg/injection, schedule: Q04DX003 (ip), vehicle: saline

Measured: T/C

CN(CCCCN(C)P(=O)(N1CC1)N1CC1)P(=O)(N1CC1)N1CC1
inactive: [1] 88 % of control

O=c1cc(Br)c(=O)c2cc(Br)cc(Br)c2[nH]1
inactive: dose: 25.0 mg/kg/injection, schedule: Q01DX009 (ip), vehicle: Klucel (hydroxypropylcellulose) (HPC) 95 % of control | [2] 98 % of control | [3] 90 % of control | [4] 98 % of control | [5] 87 % of control | [6] 106 % of control | [7] 89 % of control | dose: 400.0 mg/kg/injection, schedule: Q04DX003 (ip), vehicle: Klucel (hydroxypropylcellulose) (HPC) 88 % of control

NC(=O)c1ccc(NCc2cnc3nc(N)nc(N)c3n2)cc1
inactive: dose: 20.0 mg/kg/injection, schedule: Q01DX009 (ip), vehicle: Klucel (hydroxypropylcellulose) (HPC) 106 % of control | dose: 40.0 mg/kg/injection, schedule: Q01DX009 (ip), vehicle: Klucel (hydroxypropylcellulose) (HPC) 101 % of control | dose: 80.0 mg/kg/injection, schedule: Q01DX009 (ip), vehicle: Klucel (hydroxypropylcellulose) (HPC) 103 % of control

CCCCCCCCCCCCNC(=O)c1ccc[n+](Cc2ccccc2)c1
inactive: dose: 5.0 mg/kg/injection, schedule: Q01DX009 (ip), vehicle: saline 102 % of control | dose: 5.0 mg/kg/injection, schedule: Q04DX003 (ip), vehicle: saline sonified 101 % of control | dose: 10.0 mg/kg/injection, schedule: Q01DX009 (ip), vehicle: saline 98 % of control | dose: 10.0 mg/kg/injection, schedule: Q04DX003 (ip), vehicle: saline sonified 106 % of control

Cc1cc(C)nc(NS(=O)(=O)c2ccc(NC(=O)Nc3ccc(F)cc3F)cc2)n1
inactive: [8] 96 % of control | [9] 93 % of control | [10] 101 % of control

CCC1(C)CC1(Cl)Cl (stereo not given)
inactive: dose: 100.0 mg/kg/injection, schedule: Q04DX003 (ip), vehicle: other 105 % of control | dose: 200.0 mg/kg/injection, schedule: Q04DX003 (ip), vehicle: other 102 % of control | dose: 400.0 mg/kg/injection, schedule: Q04DX003 (ip), vehicle: other 100 % of control

O=C(NC(=S)N1CCCC1)c1ccccc1
inactive: [11] 96 % of control | [12] 107 % of control | [13] 96 % of control

CCOCc1cccc2ccccc12
inactive: [14] 106 % of control | [15] 98 % of control | [16] 102 % of control

CCN(CC)CCOC(=O)N1c2ccccc2Sc2ccccc21
inactive: [17] 100 % of control | [2] 102 % of control | [8] 103 % of control | [3] 102 % of control | [9] 103 % of control | [4] 98 % of control | [14] 93 % of control | [6] 93 % of control

O=C(O)CC1OCC=C2CN3CCC45C6=CC(=O)C(=O)C([N+](=O)[O-])=C6NC4C1C2CC35 (stereo not given)
inactive: dose: 25.0 mg/kg/injection, schedule: Q01DX001 (ip), vehicle: carboxymethylcellulose (CMC) 98 % of control

CCOC(=O)CN(C)C#N
inactive: [18] 101 % of control | [19] 92 % of control | dose: 200.0 mg/kg/injection, schedule: Q01DX009 (ip), vehicle: saline 101 % of control | dose: 200.0 mg/kg/injection, schedule: Q04DX003 (ip), vehicle: saline 92 % of control | dose: 400.0 mg/kg/injection, schedule: Q01DX009 (ip), vehicle: saline 92 % of control | dose: 400.0 mg/kg/injection, schedule: Q04DX003 (ip), vehicle: saline 91 % of control

CCN(CC)CCOC(=O)N(c1ccccc1)c1ccccc1
inactive: dose: 6.25 mg/kg/injection, schedule: Q01DX009 (ip), vehicle: saline 103 % of control | dose: 12.5 mg/kg/injection, schedule: Q01DX009 (ip), vehicle: saline 106 % of control | dose: 25.0 mg/kg/injection, schedule: Q01DX009 (ip), vehicle: saline 104 % of control | dose: 25.0 mg/kg/injection, schedule: Q04DX003 (ip), vehicle: saline 92 % of control | dose: 50.0 mg/kg/injection, schedule: Q01DX009 (ip), vehicle: saline 95 % of control | dose: 50.0 mg/kg/injection, schedule: Q04DX003 (ip), vehicle: saline 103 % of control | [18] 100 % of control | [19] 103 % of control

COc1ccc(Br)cc1/C=C\C=O
inactive: [1] 87 % of control | dose: 200.0 mg/kg/injection, schedule: Q01DX001 (ip), vehicle: carboxymethylcellulose (CMC) 105 % of control | dose: 400.0 mg/kg/injection, schedule: Q01DX001 (ip), vehicle: carboxymethylcellulose (CMC) 100 % of control

Nc1ncnc(N)c1NC(=O)c1ccc(CCc2ccccc2)c(Cl)c1
inactive: dose: 100.0 mg/kg/injection, schedule: Q01DX001 (ip), vehicle: Klucel (hydroxypropylcellulose) (HPC) 102 % of control | dose: 200.0 mg/kg/injection, schedule: Q01DX001 (ip), vehicle: Klucel (hydroxypropylcellulose) (HPC) 90 % of control | dose: 400.0 mg/kg/injection, schedule: Q01DX001 (ip), vehicle: Klucel (hydroxypropylcellulose) (HPC) 86 % of control

O=S(=O)(CC1CC2C=CC1C2)c1ccc(Br)cc1 (stereo not given)
inactive: [14] 108 % of control | [15] 101 % of control | [16] 101 % of control

O=C(c1ccccc1)C(Oc1ccccc1)c1ccccc1 (stereo not given)
inactive: dose: 100.0 mg/kg/injection, schedule: Q04DX002 (ip), vehicle: other 111 % of control | dose: 200.0 mg/kg/injection, schedule: Q04DX002 (ip), vehicle: other 107 % of control | dose: 400.0 mg/kg/injection, schedule: Q04DX002 (ip), vehicle: other 100 % of control

ClCC[n+]1ccccc1
inactive: dose: 75.0 mg/kg/injection, schedule: Q01DX001 (ip), vehicle: saline 104 % of control | dose: 150.0 mg/kg/injection, schedule: Q01DX001 (ip), vehicle: saline 101 % of control

CN(C)N=Nc1c(Br)cc(Br)cc1Br
inactive: [8] 87 % of control | [9] 102 % of control | [10] 105 % of control

CC1(C(N)=O)CCCC2(C)c3ccccc3CCC12 (stereo not given)
inactive: [14] 92 % of control | [15] 95 % of control | [16] 94 % of control

C/C(=C\Cl)CO
inactive: [14] 97 % of control | [15] 95 % of control

Cc1ccc(Nc2nc(N)nc(N)c2N)cc1
inactive: dose: 6.0 mg/kg/injection, schedule: Q01DX Z (ip), vehicle: saline 95 % of control | dose: 12.0 mg/kg/injection, schedule: Q01DX Z (ip), vehicle: saline 97 % of control

O=S(=O)(F)c1cc(C[P+](c2ccccc2)(c2ccccc2)c2ccccc2)ccc1Cl
inactive: dose: 6.25 mg/kg/injection, schedule: Q01DX009 (ip), vehicle: saline with Tween-80 105 % of control | dose: 12.5 mg/kg/injection, schedule: Q01DX009 (ip), vehicle: saline with Tween-80 102 % of control | [17] 103 % of control

NC(=O)C1(C(N)=O)CCC1
inactive: [3] 105 % of control | [5] 105 % of control | [7] 106 % of control

COC(=O)C(O)(C#CC(C)(C)C)c1ccccc1 (stereo not given)
inactive: dose: 100.0 mg/kg/injection, schedule: Q01DX001 (ip), vehicle: other 86 % of control | dose: 200.0 mg/kg/injection, schedule: Q01DX001 (ip), vehicle: other 91 % of control | dose: 400.0 mg/kg/injection, schedule: Q01DX001 (ip), vehicle: other 96 % of control

Cc1cc(=S)cc(C)o1
inactive: dose: 100.0 mg/kg/injection, schedule: Q04DX002 (ip), vehicle: gum acacia 93 % of control | dose: 200.0 mg/kg/injection, schedule: Q04DX002 (ip), vehicle: gum acacia 109 % of control

Cc1c(C)c(CN)c(C)c(C)c1CN
inactive: [3] 91 % of control | [4] 103 % of control | [5] 100 % of control | [6] 98 % of control

Cc1ccc([N+](=O)[O-])cc1NC(=O)N(CCO)C1CCCCC1
inactive: [11] 101 % of control | [12] 100 % of control | [13] 104 % of control

COC1OC2COc3ccccc3OC2C2C1N2C(=N)N[N+](=O)[O-] (stereo not given)
inactive: dose: 40.0 mg/kg/injection, schedule: Q04DX002 (ip), vehicle: saline 102 % of control | dose: 160.0 mg/kg/injection, schedule: Q04DX002 (ip), vehicle: saline 102 % of control
